The values below come from patent publication US10821091B2, “Retinoid compositions and methods of increasing immune cell-mediated killing of IDH mutant cancer cells” (UNIVERSITY OF PITTSBURGH—OF THE COMMONWEALTH SYSTEM OF …, priority 2017, dated 2020).

Entries after “also recorded” stand apart in the source; their conditions may differ.

In one data set the test system is IDH mutant cells. Put plainly: NK cytotoxicity assay (CFSE/7-AAD flow cytometry) on ATRA-treated glioma cells. The format is cell-based, human. Here is the method:
All-trans Retinoic acid (ATRA) treatment of astrocytes and primary glioma cells. ATRA was purchased from Sigma Aldrich® and reconstituted in DMSO. ATRA was added at a 1 μM final concentration to cell culture medium for 48 hours. After treatment, the cells either lysed in Trizol™ for qPCR analysis, or were used in NK cytotoxicity assays.
NK-92 cell culture. For some experiments, NK92 cells were used instead of donor NK cells. NK92 cells (ATCC® CRL-2407™) were obtained from ATCC. […] Fresh medium was added every 2-3 days and once a week, the cells were counted and re-suspended at a final concentration of 5×10^5 cells/mL in fresh medium.
NK cytotoxicity assay. […] After 6 h incubation, the cells were stained with 0.25 μg/ml of 7-AAD and analyzed by flow cytometry.
ATRA induced increased cytotoxic killing of IDH mutant cells in an NKG2D-ligand dependent manner. The ability of ATRA to sensitize IDH mutant cells to killing by NK cells was evaluated. For this purpose, IDH mutant and WT cells were treated with 1 μM ATRA for 48 hours and assessed for killing by NK-92 cells (ATCC) at a 10:1 E:T ratio. […] ATRA-treated cells were also evaluated for expression of NKG2D ligands.
On the technique in general: A flow cytometer gives signals particle by particle.

In data set [1] the test system is IDH mutant primary glioma cells. Description: Tumor growth in athymic nude mice with flank glioma tumors. The format is in vivo. As for the experimental part: (§1) Mice. 6-8 week old Balb/c nude mice (CAnN.Cg-Foxn1nu/Crl) were purchased from Charles River Laboratories. Mice were injected with 10^6 IDH WT or mutant primary glioma cells sub-cutaneously in the right flank. When the tumors were about 25 mm^2, ATRA treatment was started. 10 mg/Kg ATRA was administered to mice intra-peritoneally (i.p.) every alternate day until termination of the experiment. DMSO-treated mice were used as controls. The mice were monitored for signs of drug toxicity such as weight-loss, lethargy, skin lesions and diarrhea. The tumors were measured every 3 days, and the mice were sacrificed when the tumors were about 400 mm^2. For NK depletion experiments, 6-week old B6 nude mice (B6.Cg-Foxn1nu/J) were purchased from The Jackson Laboratory. NK depletion was performed by injecting mice with 200 μg of anti-NK1.1 antibody (Biolegend) i.p. on the day ATRA treatment was started. Mice injected with 200 μg of an isotype antibody were used as controls. Mice were bled and evaluated for circulating NKs by flow cytometry.
ATRA promotes tumor stasis in IDH mutant tumor-bearing mice. To determine the value of ATRA as a therapeutic modality, its anti-tumor efficacy in vivo was evaluated. […] Tumors were measured every 3 days. […] Resected tumors from ATRA or DMSO-treated mice were digested to obtain single cell suspensions and assessed for killing by human and mouse NK cells ex vivo.

For data set [2], the system named is RBP1 in IDH mutant (HT-1080) cells. Description: RBP1 levels by qPCR in chondrosarcoma cells. The format is cell-based. Particulars: 1 μM or 10 μM ATRA, 48 hours. An excerpt: IDH mutant tumor cells produce reduced amounts of RBP1 compared to WT IDH tumor cells (FIG. 11D).
In the next data set the test system is IDH mutant tumors. Put plainly: Comparison of RA isoforms in tumor-bearing mice. The format is in vivo. An excerpt:
Mice. […] DMSO-treated mice were used as controls.
Therefore, the efficacy of two other RA isoforms were compared with ATRA in IDH mutant gliomas. […] However, treatment of IDH mutant tumors with all three retinoic acid isoforms reduced tumor size (the bottom 3 data lines at Day 40 having endpoints below 100 mm^2). […] The changes in tumor microenvironment induced by ATRA differed from the other RA isoforms as well.

The conditions of data set [3]: mouse, in vivo. As for the experimental part:
as §1
Retinoic acid has been used as a chemotherapeutic agent in a wide variety of cancers, in pre-clinical as well as clinical applications. 13-cis-RA is the most common form of RA used in clinics, and is effective in a variety of neoplasms. Therefore, the efficacy of 13-cis RA was compared with ATRA and Bexarotene (a synthetic retinoic acid analogue) in IDH mutant gliomas.

For data set [4], the system named is IDH mutant primary glioma neurospheres. Description: Differentiation of primary glioma neurospheres. The format is cell-based, human. As to conditions: for morphological changes: 1 μM ATRA. As for the experimental part:
Glioma cell culture. Resected tumors from Glioma patients (both IDH wt and mutant) were mechanically dissociated to form a single cell suspension. Contaminating RBCs were removed using an RBC lysis buffer (eBioscience) and cells were propagated into neural stem cells in Neurocult™ NS-A proliferation kit supplemented with 20 ng/mL Human Recombinant EGF, 10 ng/mL Human Recombinant bFGF) and 2 μg/mL Heparin Solution (Stemcell Technologies Canada Inc.). After 3 weeks in culture, neurospheres were moved to Complete Medium (CM) in order to propagate differentiation into adherent cell lines.
All-trans retinoic acid (ATRA) is a differentiating agent for multiple types of cancers, including IDH mutant acute myeloid leukemia (AML). Therefore, efficacy of ATRA as a differentiating agent in IDH mutant gliomas was evaluated. IDH mutant or WT primary glioma neurospheres were treated with 1 μM ATRA for 2, 7 or 14 days. At each time point, cells were evaluated for morphological changes and changes in their molecular profile. Vehicle (DMSO)-treated cells served as controls, while cells treated with 10% FBS served as differentiation (positive) controls.

Consider `CC1=C(/C=C/C(C)=C/C=C/C(C)=C/C(=O)O)C(C)(C)CCC1` [ATRA, all-trans retinoic acid], for which, in the data set with IDH mutant cells (ATRA-treated IDH mutant cells), the “killing by NK cells incubated with NKG2D blocking antibody” value was “failed to recognize and kill ATRA-treated IDH mutant cells, reducing killing to baseline levels”. Also, the “killing by NK-92 cells” value in the data set on IDH mutant cells (IDH mutant cells, 1 μM ATRA 48 hours, 10:1 E:T ratio, vs DMSO-treated controls) is “significantly more susceptible to killing by NK-92 cells”. The tumor growth result in data set [1] (10 mg/kg every other day for 21 days, vs DMSO (vehicle)-treated mice and mice with WT tumors) is recorded as “significantly slower tumor growth”. Besides, in data set [1] (ATRA-treated IDH mutant tumors (data not shown)), the “ex vivo expression of ULBP1 and ULBP3 in tumors” value is “increased ex vivo expression of ULBP1 and ULBP3”. In addition, the RBP1 levels entry in data set [2] is given as “increased RBP1 levels in IDH mutant chondrosarcoma cells in a dose dependent manner”. Besides, in the data set with IDH mutant tumors (ATRA vs 13-cis RA and bexarotene), the “efficacy at retarding IDH mutant tumor growth compared among RA isoforms” value was “significantly more effective at retarding IDH mutant tumor growth in vivo; also recorded: the most effective RA isoform in terms of tumor growth”. Also, in the data set with IDH mutant tumors (after ATRA treatment, compared with 13-cis RA and bexarotene), the “tumor microenvironment immune cells” value was “lower MDSCs and monocytes, and higher DCs and macrophages”. Besides, the “gene expression levels of ULBP3 ex vivo” value in the data set with IDH mutant tumors (compared with 13-cis RA and bexarotene) was “higher gene expression levels of ULBP3”. Also, in the data set on IDH mutant tumors (ex vivo co-culture with human NKs, compared among RA isoforms), the “killing of IDH mutant cells by NK cells” value is “significantly increased killing of IDH mutant cells by NK cells; also recorded: highest level of NK-mediated killing”. For the same molecule, the “toxicity in treated mice (weight loss and wasting)” value in data set [3] was “not observed in ATRA-treated mice”. Moreover, the morphological changes result in data set [4] (14 days) is on record as “induced morphological changes in IDH mutant primary glioma neurospheres, but not WT neurospeheres”; in data set [4] (earlier time points), “Minimal morphological changes”. For the same molecule, the “time of ATRA treatment after which differentiation occurred” value in data set [4] (IDH mutant glioma stem cells) was more than 10 days. Besides, the “levels of stem cell markers Sox2, CD133 and Nestin” value in data set [4] (IDH mutant neurospheres, ATRA 14 days, PCR (Nestin also flow cytometry)) is “significantly lower levels”. Besides, in data set [4] (IDH mutant neurospheres, ATRA 14 days, PCR and flow cytometry), the “levels of GFAP, astrocytic differentiation marker” value is “increased levels of GFAP”.
